Reference: ChEMBL document CHEMBL1201862, “PubChem BioAssay data set” (2004)
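In this assay, cells in 96-well plates receive the compound at five concentrations for 48 hours. Endpoints are linearly interpolated between the surrounding concentrations. GI50 is the concentration that inhibits growth by half.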 Active and inactive are the calls of the source. No stated cut-off is given here; in the data, active = GI50 up to about 1.1 µM and inactive = higher. Starred links: 1 amine or outer side, 2 acyl side, 3 side chain; linkers in the order of their positions; H or OH if unused. Positions of bridges follow the written chain, without caps; N, C: chain ends. Non-standard residues stand in square brackets, D forms with d. Residues, ends and D or L forms follow the SMILES beside them. ξ: configuration not given here. X37 = CC[C@H](C)[C@@H](N[*:1])[C@@H](O)CC(=O)O[C@H](C(=O)[C@H](C)C(=O)[*:2])C(C)C; NMeY = CN[C@@H](Cc1ccc(O)cc1)C(=O)O; dNMeL = CN[C@H](CC(C)C)C(=O)O; ξΔPro = O=C(O)C1C=CCN1

Key:
Test in all cases: NCI tumour cell line growth inhibition, 48 h
OVCAR-3 = tested on: OVCAR-3
T47D = tested on: T47D
COLO 205 = tested on: COLO 205
HOP-62 = tested on: HOP-62
UACC-257 = tested on: UACC-257
SF-295 = tested on: SF-295
MOLT-4 = tested on: MOLT-4
DU-145 = tested on: DU-145
MCF7 = tested on: MCF7
HCT-15 = tested on: HCT-15
OVCAR-8 = tested on: OVCAR-8
NCI/ADR-RES = tested on: NCI/ADR-RES
Hs-578T = tested on: Hs-578T
PC-3 = tested on: PC-3
HT-29 = tested on: HT-29
CAKI-1 = tested on: CAKI-1
SNB-75 = tested on: SNB-75
MDA-MB-435 = tested on: MDA-MB-435
ACHN = tested on: ACHN
LXFL 529 = tested on: LXFL 529

Structure (SMILES)	GI50 (OVCAR-3)	GI50 (T47D)	GI50 (COLO 205)	GI50 (HOP-62)	GI50 (UACC-257)	GI50 (SF-295)	GI50 (MOLT-4)	GI50 (DU-145)	GI50 (MCF7)	GI50 (HCT-15)	GI50 (OVCAR-8)	GI50 (NCI/ADR-RES)	GI50 (Hs-578T)	GI50 (PC-3)	GI50 (HT-29)	GI50 (CAKI-1)	GI50 (SNB-75)	GI50 (MDA-MB-435)	GI50 (ACHN)	GI50 (LXFL 529)
NC1(P(=O)(O)O)CCCCC1	> 100 µM (inactive)	> 100 µM (inactive)	> 100 µM (inactive)	> 100 µM (inactive)	> 100 µM (inactive)	> 100 µM (inactive)	> 100 µM (inactive)	> 100 µM (inactive)	> 100 µM (inactive)	> 100 µM	> 100 µM (inactive)	> 100 µM (inactive)	> 100 µM (inactive)	> 100 µM (inactive)	> 100 µM (inactive)	> 100 µM (inactive)	> 100 µM (inactive)	> 100 µM (inactive)	> 100 µM (inactive)	–
COc1ccc(C2c3cc4c(cc3OC(NNC(N)=O)C2C)OCO4)cc1 (stereo not drawn)	3.85 µM (inactive)	27.4 µM (inactive)	3.95 µM (inactive)	6.28 µM (inactive)	10.2 µM (inactive)	3.58 µM (inactive)	3.94 µM (inactive)	22.3 µM (inactive)	4.21 µM (inactive)	3.94 µM	6.67 µM (inactive)	7.5 µM (inactive)	3.53 µM (inactive)	4.69 µM (inactive)	3.3 µM (inactive)	6.71 µM (inactive)	6.22 µM (inactive)	2.14 µM (inactive)	8.75 µM (inactive)	–
CCOC(=O)CC[C@H](N)C(=O)N[C@H](Cc1ccc(N(CCCl)CCCl)cc1)C(=O)OCC	3.59 µM (inactive)	0.239 µM (active)	0.977 µM (active)	2.26 µM (inactive)	10 µM (inactive)	3.21 µM (inactive)	1.18 µM (inactive)	0.348 µM (active)	1.21 µM (inactive)	4.39 µM	2.97 µM (inactive)	4.26 µM (inactive)	2.39 µM (inactive)	3.63 µM (inactive)	3.92 µM (inactive)	0.154 µM (active)	0.468 µM (active)	24.9 µM (inactive)	0.0706 µM (active)	–
CCOC(=O)C1(Cc2ccccc2)C=CN(C(=O)c2ccccc2)C=C1	41.3 µM (inactive)	16.1 µM (inactive)	17.8 µM (inactive)	45.9 µM (inactive)	20.6 µM (inactive)	36 µM (inactive)	20.6 µM (inactive)	57.3 µM (inactive)	30.4 µM (inactive)	32.1 µM	34.4 µM (inactive)	36.6 µM (inactive)	32.5 µM (inactive)	25.4 µM (inactive)	34.2 µM (inactive)	38.5 µM (inactive)	17.8 µM (inactive)	29.2 µM (inactive)	34.1 µM (inactive)	–
CC(=O)O[C@H]1CC[C@@]2(C)C(=CC[C@H]3[C@@H]4C[C@H](N5CCN(C)CC5)[C@H](OC(C)=O)[C@@]4(C)CC[C@@H]32)C1	8.47 µM (inactive)	17.8 µM (inactive)	17.1 µM (inactive)	25.1 µM (inactive)	6.17 µM (inactive)	22.1 µM (inactive)	4.39 µM (inactive)	> 100 µM (inactive)	5.64 µM (inactive)	13 µM	15.6 µM (inactive)	19.6 µM (inactive)	26.2 µM (inactive)	16.8 µM (inactive)	3.6 µM (inactive)	33.3 µM (inactive)	24.4 µM (inactive)	5.08 µM (inactive)	41.9 µM (inactive)	–
CCCCCOC(=O)C(=O)Nc1[nH]nnc1C(N)=O	> 100 µM (inactive)	> 100 µM (inactive)	> 100 µM (inactive)	> 100 µM (inactive)	> 100 µM (inactive)	> 100 µM (inactive)	> 100 µM (inactive)	> 100 µM (inactive)	> 100 µM (inactive)	> 100 µM	> 100 µM (inactive)	> 100 µM (inactive)	> 100 µM (inactive)	> 100 µM (inactive)	> 100 µM (inactive)	> 100 µM (inactive)	> 100 µM (inactive)	> 100 µM (inactive)	> 100 µM (inactive)	–
NCCCCCS(=O)(=O)O	> 100 µM (inactive)	–	> 100 µM (inactive)	> 100 µM (inactive)	> 100 µM (inactive)	–	> 100 µM (inactive)	–	–	> 100 µM	> 100 µM (inactive)	–	–	–	> 100 µM (inactive)	–	> 100 µM (inactive)	–	> 100 µM (inactive)	> 100 µM (inactive)
COc1ccc(/C=C/c2onc3c(=O)n(C)nc(-c4ccccc4)c23)cc1	–	–	> 100 µM (inactive)	89.3 µM (inactive)	–	–	> 100 µM (inactive)	–	–	> 100 µM	> 100 µM (inactive)	–	–	–	45 µM (inactive)	35.9 µM (inactive)	–	–	> 100 µM (inactive)	> 100 µM (inactive)
Cc1cc2c(cc1Cl)SC(NNC1=NCCN1)=NS2(=O)=O	> 10 µM (inactive)	> 10 µM (inactive)	> 10 µM (inactive)	> 10 µM (inactive)	> 10 µM (inactive)	> 10 µM (inactive)	> 10 µM (inactive)	> 10 µM (inactive)	0.00248 µM (active)	> 10 µM	> 10 µM (inactive)	> 10 µM (inactive)	> 10 µM (inactive)	> 10 µM (inactive)	> 10 µM (inactive)	> 10 µM (inactive)	> 10 µM (inactive)	> 10 µM (inactive)	> 10 µM (inactive)	–
COC(C/C(=C/CO[Si](C(C)C)(C(C)C)C(C)C)C(=O)N(C(=O)OC(C)(C)C)c1ccccc1I)OC	29.2 µM (inactive)	36.8 µM (inactive)	67.5 µM (inactive)	57.7 µM (inactive)	38.8 µM (inactive)	10.7 µM (inactive)	22.9 µM (inactive)	> 100 µM (inactive)	18.7 µM (inactive)	33.4 µM	> 100 µM (inactive)	> 100 µM (inactive)	83.4 µM (inactive)	23.6 µM (inactive)	> 100 µM (inactive)	33.2 µM (inactive)	> 100 µM (inactive)	32.5 µM (inactive)	45.9 µM (inactive)	–
Cc1ccc(C2CC(c3ccco3)=NN2c2ccccc2)o1 (stereo not drawn)	> 100 µM (inactive)	–	> 100 µM (inactive)	> 100 µM (inactive)	–	> 100 µM (inactive)	> 100 µM (inactive)	–	–	> 100 µM	> 100 µM (inactive)	–	–	–	> 100 µM (inactive)	–	> 100 µM (inactive)	–	> 100 µM (inactive)	> 100 µM (inactive)
Cc1cn(C2CC(O)C(COC(N)=O)O2)c(=O)[nH]c1=O (stereo not drawn)	> 100 µM (inactive)	> 100 µM (inactive)	> 100 µM (inactive)	> 100 µM (inactive)	> 100 µM (inactive)	> 100 µM (inactive)	> 100 µM (inactive)	> 100 µM (inactive)	> 100 µM (inactive)	> 100 µM	> 100 µM (inactive)	> 100 µM (inactive)	> 100 µM (inactive)	> 100 µM (inactive)	> 100 µM (inactive)	> 100 µM (inactive)	71.1 µM (inactive)	> 100 µM (inactive)	> 100 µM (inactive)	–
COc1cc(Cn2c3c(c4c(CN(C)C)c(O)ccc42)C(=O)c2ccccc2C3=O)cc(OC)c1	24.2 µM (inactive)	15.4 µM (inactive)	25.5 µM (inactive)	15.7 µM (inactive)	22.8 µM (inactive)	21.5 µM (inactive)	24.4 µM (inactive)	21.7 µM (inactive)	15.9 µM (inactive)	14 µM	14.6 µM (inactive)	17.6 µM (inactive)	19.1 µM (inactive)	21 µM (inactive)	26.9 µM (inactive)	13 µM (inactive)	0.414 µM (active)	18.1 µM (inactive)	15.3 µM (inactive)	–
CC(C)(C)OC(=O)N1C(c2cccnc2)=CC[C@H]2C3CC=C(c4cccnc4)[C@@]3(C)CC[C@@H]21 (stereo partly drawn)	3.44 µM (inactive)	4.16 µM (inactive)	1.74 µM (inactive)	2.79 µM (inactive)	3.23 µM (inactive)	3.13 µM (inactive)	2.54 µM (inactive)	4.76 µM (inactive)	2.81 µM (inactive)	3.52 µM	4.02 µM (inactive)	8.45 µM (inactive)	5.64 µM (inactive)	4.6 µM (inactive)	3.53 µM (inactive)	6.55 µM (inactive)	5.6 µM (inactive)	2.13 µM (inactive)	3.46 µM (inactive)	–
Cc1cc(/N=N/c2c(O)ccc3ccccc23)ccc1/N=N/c1cccc([N+](C)(C)C)c1	5.21 µM (inactive)	6.22 µM (inactive)	2.47 µM (inactive)	11.4 µM (inactive)	12.2 µM (inactive)	20.6 µM (inactive)	10.8 µM (inactive)	19.6 µM (inactive)	7.1 µM (inactive)	31 µM	10.1 µM (inactive)	74.1 µM (inactive)	4.17 µM (inactive)	6.81 µM (inactive)	3.66 µM (inactive)	22.7 µM (inactive)	4 µM (inactive)	6.25 µM (inactive)	23.8 µM (inactive)	–
CC[C@H](C)[C@H]1NC(=O)[C@@H](NC(=O)[C@@H](CC(C)C)N(C)C(=O)C2C=CCN2)[C@@H](C)OC(=O)[C@H](Cc2ccc(OC)cc2)N(C)C(=O)[C@@H]2CCCN2C(=O)[C@H](CC(C)C)NC(=O)[C@@H](C)C(=O)[C@H](C(C)C)OC(=O)C[C@@H]1O (stereo partly drawn) (H-[ξΔPro][dNMeL]T[X37]LP[NMeY](Me); ester 3-C)	< 0.005 µM (active)	< 0.005 µM (active)	< 0.005 µM (active)	< 0.005 µM (active)	< 0.005 µM (active)	< 0.005 µM (active)	< 0.005 µM (active)	< 0.005 µM (active)	< 0.005 µM (active)	0.0162 µM	< 0.005 µM (active)	0.0617 µM (active)	< 0.005 µM (active)	< 0.005 µM (active)	< 0.005 µM (active)	0.0107 µM (active)	< 0.005 µM (active)	< 0.005 µM (active)	< 0.005 µM (active)	–
